According to patent US8507010B2, “Compositions comprising quinazoline derivatives” (Shanghai Allist Pharmaceuticals, Inc., priority 2008, dated 2013):
Blank lines part the entries; values can stand above or below the compound they belong to.

What was measured:
in vivo = settings: male, SD, rat
Experimental: Intragastric administration (ig): 16 healthy SD rats (Shanghai Super-B&K Laboratory Animal Corp. Ltd., grade SPF), male, weighted 200-250 g, randomly divided into four groups, were each administered intragastrically with a drug: the compound prepared according to Example 1 (21.68 mg/kg), crystalline form A, crystalline form B, or crystalline form C (30 mg/kg) of p-toluenesulfonate of said compound. The blood samples were collected at 0.5 h, 1.0 h, 1.5 h, 2.0 h, 3.0 h, 5.0 h, 7.0 h, 9.0 h, 12 h, and 24 h after administration, which were then isolated to prepare the plasma. The concentrations of the drugs in the plasma were determined by means of liquid phase chromatography/tandem mass spectrometer (Agilent 1200LC/6410B), and the concentration-time curve was obtained.

[1] = Study of stability at high temperature (60° C.); assay type: physicochemical; settings: p-toluenesulfonate; for Purity (%): 60° C.; for thermal stability (in words): stored at 60° C. for 1 month
Study of light stability = assay type: physicochemical; settings: p-toluenesulfonate; for light stability (in words): illumination 45001×±5001× for 1 month; for Purity (%): illumination 45001×±5001×
From the text: The purity of the crystalline form A was detected at day 0, day 10 and day 30, thereby deducing light stability of crystalline form A. The light stability of each of crystalline forms B and C is obtained by the same approach.

[2] = Study of hygroscopicity (92.5% humidity); assay type: physicochemical; settings: p-toluenesulfonate; for stability in highly humid surroundings (in words): 92.5% humidity for 1 month; for Purity (%): 92.5% humidity
[3] = system: human ovarian cancer SKOV-3; assay: Tumor-inhibitory effect on human ovarian cancer SKOV-3 grafted to a BALB/cA nude mouse; assay type: in vivo; settings: for RTV: RTV=Vt/V0; for Volume of tumor (mm^3) V0: prior to the administration; for inhibitory effect on the tumor (in words): SKOV-3 grafted to BALB/cA nude mouse, high expression of erbB-2, p-toluenesulfonate
Experimental: A SKOV-3 tumor tissue in vigorous growth period was selected and incised into uniform pieces with the size of about 1.5 mm^3, which was grafted subcutaneously to the right armpit of a BALB/cA nude mouse (Shanghai Institute of Materia Medica, Chinese Academy of Sciences, grade SPF) with a trocar under sterile conditions. The diameters of the grafted tumors on the nude mouse were measured with a vernier caliper. The animals were grouped randomly when the tumors grew to a size of 80 to 100 mm^3. The tested animal groups were intragastrically administered through mouth as mentioned above once a day for 3 consecutive weeks. The positive control drug MMC (Mitomycin) was intravenously administered once on the first day with a dose of 5 mg/kg (0.9% sterile sodium chloride solution). The negative control group was administered with 0.5% CMC-Na (Carboxymethyl Cellulose-Sodium) with a dose of 0.2 mL/per mouse. The long axis (a) and the short axis (b) of the tumors were measured twice every week and the nude mice were weighed at the same time. According to the formula V=ab^2/2, the volume (mm^3) of the tumor could be calculated. Relative tumor volume (RTV) was calculated from the measurement result (according to the formula: RTV=Vt/V0, wherein V0 is the tumor volume measured upon the grouping time of administration, and Vt is the tumor volume measured each time). The relative tumor proliferation rate T/C(%) was chosen as the index of evaluation of anti-tumor activity, by the formula: T/C(%)=(TRTV/CRTV)×100 TRTV: RTV of the treated group; CRTV: RTV of the negative control group
(§1) Human epidermoid squamous carcinoma A431 grafted to BALB/cA nude mouse is an animal model having high expression of EGFR (erbB-1), and human ovarian cancer SKOV-3 grafted to BALB/cA nude mouse is an animal model having high expression of erbB-2.

[4] = Test on the drug absorption in SD rat, intravenous injection (iv); assay type: in vivo; settings: male, 5 mg/kg, plasma
Experimental: Intravenous injection (iv): 4 healthy SD rats, male, weighted 200-250 g, were intravenously administered with p-toluenesulfonate of the compound of Example 1 (5 mg/kg). The blood samples were collected at 5 min, 15 min, 0.5 h, 1.5 h, 2.0 h, 3.0 h, 4.0 h, 5.0 h and 7.0 h after administration, which were then isolated to prepare the plasma. The concentrations of the drugs in the plasma were determined by means of liquid phase chromatography/tandem mass spectrometer and the concentration-time curve was obtained.

[5] = system: human epidermoid squamous cancer cell A431; assay: Tumor-inhibitory effect on human epidermoid squamous cancer cell A431 grafted to a BALB/cA nude mouse; assay type: in vivo; settings: for inhibitory effect on the tumor (in words): A431 grafted to BALB/cA nude mouse, high expression of EGFR (erbB-1), p-toluenesulfonate; for Tumor-inhibitory rate % / Weight of animals (g) (tumor-off) / Weight of tumor (g) x ± SD: 13 successive days, 23 days after grafting
Experimental: A well-developed solid tumor A431 was selected and incised into several uniform pieces with the size of 2-3 mm under sterile conditions, with one piece being grafted subcutaneously to the right armpit of each of the BALB/cA nude mice using a trocar. 7 days after the grafting, the mice were grouped randomly and were intragastrically administrated through mouth for 13 successive days. The long axis (a) and the short axis (b) of the tumors were measured with a vernier caliper every 4 days. According to the formula V=ab^2/2, the volume of the tumor (mm^3) could be calculated. The tested animals were neck-off killed 23 days after the grafting, and anatomized to obtain the tumors. The tumors were weighed, and the tumor inhibition rate was calculated.
as §1

[6] = 5 mg/kg iv once on the first day
[7] = listed as p-toluenesulfonate of N-{-4-[3-chloro-4-(3-fluoro-benzyloxy)phenylamino]quinazol
[8] = 50 mg/kg ig once a day for 3 weeks
[9] = 100 mg/kg ig once a day for 3 weeks
[10] = 200 mg/kg ig once a day for 3 weeks

absolute bioavailability (in vivo): 8.76%
AUC(0-t) (in vivo; po, 30 mg/kg): 978 ng·h/mL
Cmax (in vivo; po, 30 mg/kg): 253 ng/mL
T1/2 (in vivo; po, 30 mg/kg): 1.23 h
Tmax (in vivo; po, 30 mg/kg): 1.25 h
Purity (%) ([1]; day 0): 99.26%
Purity (%) ([1]; day 10): 99.21%
Purity (%) ([1]; day 30): 99.11%
thermal stability (in words) [1]: excellent thermal stability
light stability (in words) (Study of light stability): excellent light stability
Purity (%) (Study of light stability; day 0): 99.26%
Purity (%) (Study of light stability; day 10): 99.26%
Purity (%) (Study of light stability; day 30): 99.24%
stability in highly humid surroundings (in words) [2]: very stable
Purity (%) ([2]; day 0): 99.26%
Purity (%) ([2]; day 10): 99.25%
Purity (%) ([2]; day 30): 99.24%
SMILES: C=CC(=O)Nc1ccc2ncnc(Nc3ccc(OCc4cccc(F)c4)c(Cl)c3)c2c1.Cc1ccc(S(=O)(=O)O)cc1 [Crystalline form B, N-{4-[3-chloro-4-(3-fluoro-benzyloxy)phenylamino]quinazolin-6-yl}-acrylamide p-toluenesulfonate]

SMILES: CO[C@@]12[C@H](COC(N)=O)C3=C(C(=O)C(C)=C(N)C3=O)N1C[C@@H]1N[C@@H]12 [MMC, Mitomycin, reference compound]
RTV [3, 6]: 3.1 ± 0.5
T/C (%) ([3]; 5 mg/kg iv once on the first day, T/C=(TRTV/CRTV)×100): 32.0%
Volume of tumor (mm^3) V21 ([3]; 5 mg/kg iv once on the first day, after 3 weeks): 258 ± 77 mm^3
Volume of tumor (mm^3) V0 [3, 6]: 83 ± 13 mm^3

AUC(0-t) [4]: 1860 ng·h/mL
Cmax [4]: 1740 ng/mL
Tmax [4]: 4.98 min
half-life [4]: 1.55 h
SMILES: C=CC(=O)Nc1ccc2ncnc(Nc3ccc(OCc4cccc(F)c4)c(Cl)c3)c2c1.Cc1ccc(S(=O)(=O)O)cc1 [p-toluene sulfonate, N-{4-[3-chloro-4-(3-fluoro-benzyloxy)phenylamino]quinazolin-6-yl}-acrylamide p-toluenesulfonate]
inhibitory effect on the tumor (in words) ([5]; listed as p-toluenesulfonate of N-{-4-[3-chloro-4-(3-fluoro-benzyloxy)phenylamino]-quinazo): significant inhibitory effect on the tumor
inhibitory effect on the tumor (in words) [5, 7]: remarkable inhibitory effect on tumor growth
inhibitory effect on the tumor (in words) [3, 7]: remarkable inhibitory effect on tumor growth

absolute bioavailability (in vivo): 5.17%
Tmax (in vivo; po, 30 mg/kg): 2.25 h
AUC(0-t) (in vivo; po, 30 mg/kg, AUC0-t): 577 ng·h/mL
Cmax (in vivo; po, 30 mg/kg, Cmax): 161 ng/mL
half-life (in vivo; po, 30 mg/kg, T1/2): 1.27 h
Purity (%) ([1]; day 0): 99.03%
Purity (%) ([1]; day 10): 97.08%
Purity (%) ([1]; day 30): 97.55%
thermal stability (in words) [1]: good thermal stability
light stability (in words) (Study of light stability): good light stability
Purity (%) (Study of light stability; day 0): 99.03%
Purity (%) (Study of light stability; day 10): 98.54%
Purity (%) (Study of light stability; day 30): 98.42%
stability in highly humid surroundings (in words) [2]: quite stable
Purity (%) ([2]; day 0): 99.03%
Purity (%) ([2]; day 10): 98.27%
Purity (%) ([2]; day 30): 98.08%
SMILES: C=CC(=O)Nc1ccc2ncnc(Nc3ccc(OCc4cccc(F)c4)c(Cl)c3)c2c1.Cc1ccc(S(=O)(=O)O)cc1 [Crystalline form C, N-{4-[3-chloro-4-(3-fluoro-benzyloxy)phenylamino]quinazolin-6-yl}-acrylamide p-toluenesulfonate]

bioavailability (in vivo; absolute bioavailability): 8.75%
AUC(0-t) (in vivo; po, 30 mg/kg): 977 ng·h/mL
Cmax (in vivo; po, 30 mg/kg): 187 ng/mL
T1/2 (in vivo; po, 30 mg/kg): 1.49 h
Tmax (in vivo; po, 30 mg/kg): 2.83 h
Weight of animals (g) (tumor-off) ([5]; 25 mg/kg ig): 21.58 ± 2.18 g
Weight of animals (g) (tumor-off) ([5]; 50 mg/kg ig): 22.87 ± 3.96 g
Weight of animals (g) (tumor-off) ([5]; 100 mg/kg ig): 22.13 ± 1.83 g
Purity (%) ([1]; day 0): 98.64%
Purity (%) ([1]; day 10): 98.64%
Purity (%) ([1]; day 30): 98.64%
thermal stability (in words) [1]: excellent thermal stability
light stability (in words) (Study of light stability): good light stability
Purity (%) (Study of light stability; day 0): 98.64%
Purity (%) (Study of light stability; day 10): 98.16%
Purity (%) (Study of light stability; day 30): 97.24%
stability in highly humid surroundings (in words) [2]: very stable
Purity (%) ([2]; day 0): 98.64%
Purity (%) ([2]; day 10): 98.62%
Purity (%) ([2]; day 30): 98.62%
SMILES: C=CC(=O)Nc1ccc2ncnc(Nc3ccc(OCc4cccc(F)c4)c(Cl)c3)c2c1.Cc1ccc(S(=O)(=O)O)cc1 [Crystalline form A, N-{4-[3-chloro-4-(3-fluoro-benzyloxy)phenylamino]quinazolin-6-yl}-acrylamide p-toluenesulfonate]
Tumor-inhibitory rate % ([5]; 25 mg/kg ig): 29.99%
Weight of tumor (g) x ± SD ([5]; 25 mg/kg ig): 0.79 ± 0.20 g
Tumor-inhibitory rate % ([5]; 50 mg/kg ig): 38.67%
Weight of tumor (g) x ± SD ([5]; 50 mg/kg ig): 0.69 ± 0.17 g
Tumor-inhibitory rate % ([5]; 100 mg/kg ig): 43.63%
Weight of tumor (g) x ± SD ([5]; 100 mg/kg ig): 0.64 ± 0.23 g
T/C (%) [3, 8]: 53.0%
RTV [3, 8]: 5.1 ± 1.7
Volume of tumor (mm^3) V21 ([3]; 50 mg/kg ig once a day, after administration for consecutive 3 weeks): 421 ± 89 mm^3
Volume of tumor (mm^3) V0 ([3]; 50 mg/kg ig): 79 ± 28 mm^3
T/C (%) [3, 9]: 45.0%
RTV [3, 9]: 4.3 ± 1.3
Volume of tumor (mm^3) V21 ([3]; 100 mg/kg ig once a day, after administration for consecutive 3 weeks): 345 ± 88 mm^3
Volume of tumor (mm^3) V0 ([3]; 100 mg/kg ig): 87 ± 41 mm^3
T/C (%) [3, 10]: 36.9%
RTV [3, 10]: 3.5 ± 0.8
Volume of tumor (mm^3) V21 ([3]; 200 mg/kg ig once a day, after administration for consecutive 3 weeks): 303 ± 72 mm^3
Volume of tumor (mm^3) V0 ([3]; 200 mg/kg ig): 86 ± 13 mm^3
inhibitory effect on the tumor (in words) [3]: significant inhibitory effect on the tumor
